According to ChEMBL document CHEMBL3045904, “Synthesis, AM1 calculation, and biological studies of thiopyran-4-one and their azine derivatives” (2007):
≈ marks a conversion by molar mass, not a printed value. Calls of active or inactive are those of the source. No cut-off for these calls is given here.

What was measured:
Type in all cases: functional
Pseudomonas aeruginosa = test: Antibacterial activity against Pseudomonas aeruginosa after 24 hr by twofold serial dilution method
Bacillus subtilis = test: Antibacterial activity against Bacillus subtilis after 24 hr by two-fold serial dilution method
Staphylococcus aureus = test: Antibacterial activity against Staphylococcus aureus after 24 hr by two-fold serial dilution method
Candida [1] = test: Antifungal activity against Candida-51 after 72 to 96 hr by two-fold serial dilution method
Candida [2] = test: Antifungal activity against Candida-6 after 72 to 96 hr by two-fold serial dilution method
Enterococcus faecalis = test: Antibacterial activity against Enterococcus faecalis after 24 hr by two-fold serial dilution method
Aspergillus flavus = test: Antifungal activity against Aspergillus flavus after 72 to 96 hr by two-fold serial dilution method
Aspergillus niger = test: Antifungal activity against Aspergillus niger after 72 to 96 hr by two-fold serial dilution method
Escherichia coli = test: Antibacterial activity against Escherichia coli after 24 hr by two-fold serial dilution method

| SMILES | MIC (Pseudomonas aeruginosa) | MIC (Bacillus subtilis) | MIC (Staphylococcus aureus) | MIC (Candida [1]) | MIC (Candida [2]) | MIC (Enterococcus faecalis) | MIC (Aspergillus flavus) | MIC (Aspergillus niger) | MIC (Escherichia coli) |
| --- | --- | --- | --- | --- | --- | --- | --- | --- | --- |
| O/N=C1\C[C@@H](c2ccccc2)S[C@@H](c2ccccc2)C1 | inactive | 100 µg/mL (≈ 353 µM) | 100 µg/mL (≈ 353 µM) | inactive | 100 µg/mL (≈ 353 µM) | inactive | 100 µg/mL (≈ 353 µM) | inactive | inactive |
| O=[N+]([O-])c1ccccc1/C=N/N=C1\C[C@@H](c2ccccc2)S[C@@H](c2ccccc2)C1 (relative stereo) | 50 µg/mL (≈ 120 µM) | 25 µg/mL (≈ 60.2 µM) | 25 µg/mL (≈ 60.2 µM) | 25 µg/mL (≈ 60.2 µM) | 50 µg/mL (≈ 120 µM) | 50 µg/mL (≈ 120 µM) | 100 µg/mL (≈ 241 µM) | 100 µg/mL (≈ 241 µM) | 100 µg/mL (≈ 241 µM) |
| C[C@@H]1[C@H](O)[C@@H](C)/C=C/C=C/C=C/C=C/C=C/C=C/C=C/[C@H](O[C@@H]2O[C@H](C)[C@@H](O)[C@H](N)[C@@H]2O)C[C@@H]2O[C@](O)(C[C@@H](O)C[C@@H](O)[C@H](O)CC[C@@H](O)C[C@@H](O)CC(=O)O[C@H]1C)C[C@H](O)[C@H]2C(=O)O [AMPHOTERICIN B] | – | – | – | 25 µg/mL (≈ 27.1 µM) | 25 µg/mL (≈ 27.1 µM) | – | 50 µg/mL (≈ 54.1 µM) | 50 µg/mL (≈ 54.1 µM) | – |
| c1ccc([C@@H]2C/C(=N\N=C3/C[C@@H](c4ccccc4)S[C@@H](c4ccccc4)C3)C[C@H](c3ccccc3)S2)cc1 | 50 µg/mL (≈ 93.8 µM) | 50 µg/mL (≈ 93.8 µM) | 25 µg/mL (≈ 46.9 µM) | 50 µg/mL (≈ 93.8 µM) | 100 µg/mL (≈ 188 µM) | 100 µg/mL (≈ 188 µM) | 100 µg/mL (≈ 188 µM) | 50 µg/mL (≈ 93.8 µM) | 100 µg/mL (≈ 188 µM) |
| N/N=C1\C[C@@H](c2ccccc2)S[C@@H](c2ccccc2)C1 (relative stereo) | 100 µg/mL (≈ 354 µM) | 100 µg/mL (≈ 354 µM) | 100 µg/mL (≈ 354 µM) | 100 µg/mL (≈ 354 µM) | 50 µg/mL (≈ 177 µM) | 100 µg/mL (≈ 354 µM) | 100 µg/mL (≈ 354 µM) | 100 µg/mL (≈ 354 µM) | 50 µg/mL (≈ 177 µM) |
| O=C1C[C@@H](c2ccccc2)S[C@@H](c2ccccc2)C1 | inactive | 100 µg/mL (≈ 373 µM) | 100 µg/mL (≈ 373 µM) | inactive | 100 µg/mL (≈ 373 µM) | inactive | 100 µg/mL (≈ 373 µM) | inactive | inactive |
| CN[C@@H]1[C@H](O[C@H]2[C@H](O[C@H]3[C@H](O)[C@@H](O)[C@H](N=C(N)N)[C@@H](O)[C@@H]3N=C(N)N)O[C@@H](C)[C@]2(O)C=O)O[C@@H](CO)[C@H](O)[C@H]1O [STREPTOMYCIN] | 25 µg/mL (≈ 43 µM) | 12.5 µg/mL (≈ 21.5 µM) | 25 µg/mL (≈ 43 µM) | – | – | 50 µg/mL (≈ 86 µM) | – | – | 12.5 µg/mL (≈ 21.5 µM) |
| COc1ccc(/C=N/N=C2\C[C@@H](c3ccccc3)S[C@@H](c3ccccc3)C2)cc1 (relative stereo) | 50 µg/mL (≈ 125 µM) | 6.25 µg/mL (≈ 15.6 µM) | 25 µg/mL (≈ 62.4 µM) | 12.5 µg/mL (≈ 31.2 µM) | 12.5 µg/mL (≈ 31.2 µM) | 25 µg/mL (≈ 62.4 µM) | 100 µg/mL (≈ 250 µM) | 50 µg/mL (≈ 125 µM) | 12.5 µg/mL (≈ 31.2 µM) |
| Oc1ccccc1/C=N/N=C1\C[C@@H](c2ccccc2)S[C@@H](c2ccccc2)C1 (relative stereo) | 25 µg/mL (≈ 64.7 µM) | 6.25 µg/mL (≈ 16.2 µM) | 25 µg/mL (≈ 64.7 µM) | 12.5 µg/mL (≈ 32.3 µM) | 12.5 µg/mL (≈ 32.3 µM) | 25 µg/mL (≈ 64.7 µM) | 50 µg/mL (≈ 129 µM) | 25 µg/mL (≈ 64.7 µM) | 12.5 µg/mL (≈ 32.3 µM) |
